According to BindingDB's records for doi:10.7270/Q2NZ862K (Nmmlsc, 2007):
pKi: −log10 of the molar value.

Target: T1, fMet-Leu-Phe receptor (Homo sapiens, UniProt P21462)
T1 sequence (P21462 whole entry): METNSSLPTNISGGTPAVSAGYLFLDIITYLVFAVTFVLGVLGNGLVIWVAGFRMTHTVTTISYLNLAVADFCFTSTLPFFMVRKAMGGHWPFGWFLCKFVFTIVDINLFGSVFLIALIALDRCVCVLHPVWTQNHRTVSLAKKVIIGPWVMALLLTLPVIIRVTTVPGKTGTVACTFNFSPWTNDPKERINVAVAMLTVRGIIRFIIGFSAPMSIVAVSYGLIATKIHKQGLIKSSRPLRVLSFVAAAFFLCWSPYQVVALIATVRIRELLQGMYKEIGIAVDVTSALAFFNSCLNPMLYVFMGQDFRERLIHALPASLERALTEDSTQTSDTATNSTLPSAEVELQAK
Experiment: FPR ligands, dose response (AID 519)

| pKi | Structure (SMILES) |
| --- | --- |
| < 4.36 | COc1ccc(C(=O)C2C(=O)C(=O)N(CCN3CCOCC3)C2c2ccc(C)cc2)cc1 (stereo not drawn) [(4Z)-4-[(4-methoxyphenyl)-oxidanyl-methylidene]-5-(4-methylphenyl)-1-(2-morpholin-4-ylethyl)pyrrolidine-2,3-dione] |
| < 4.36 | Cc1ccc(C(=O)C2C(=O)C(=O)N(CCN3CCOCC3)C2c2cccnc2)cc1 (stereo not drawn) [(4Z)-4-[(4-methylphenyl)-oxidanyl-methylidene]-1-(2-morpholin-4-ylethyl)-5-pyridin-3-yl-pyrrolidine-2,3-dione] |
| 4.79 | COc1ccccc1C1C(C(=O)c2ccccc2)C(=O)C(=O)N1CC(C)O (stereo not drawn) [(4Z)-4-[hydroxy(phenyl)methylene]-1-(2-hydroxypropyl)-5-(2-methoxyphenyl)pyrrolidine-2,3-quinone] |
| 5.44 | COc1ccccc1C1C(C(=O)c2ccccc2)C(=O)C(=O)N1CC(C)C (stereo not drawn) [(4Z)-4-[hydroxy(phenyl)methylene]-1-isobutyl-5-(2-methoxyphenyl)pyrrolidine-2,3-quinone] |
| 4.82 | Cc1ccc(C2C(C(=O)c3cnn(-c4ccccc4)c3C)C(=O)C(=O)N2CCN2CCOCC2)o1 (stereo not drawn) [(4Z)-4-[hydroxy-(5-methyl-1-phenyl-4-pyrazolyl)methylidene]-5-(5-methyl-2-furanyl)-1-[2-(4-morpholinyl)ethyl]pyrrolidine-2,3-dione] |
| 4.60 | COc1ccc(C2C(C(=O)c3ccccc3)C(=O)C(=O)N2CC(C)O)c(OC)c1 (stereo not drawn) [(4Z)-5-(2,4-dimethoxyphenyl)-4-[hydroxy(phenyl)methylene]-1-(2-hydroxypropyl)pyrrolidine-2,3-quinone] |
| 5.66 | COc1ccc(OC)c(C2C(C(=O)c3ccccc3)C(=O)C(=O)N2Cc2ccco2)c1 (stereo not drawn) [(4Z)-5-(2,5-dimethoxyphenyl)-1-(2-furanylmethyl)-4-[hydroxy(phenyl)methylidene]pyrrolidine-2,3-dione] |
| < 4.36 | COc1cccc(C(=O)C2C(=O)C(=O)N(Cc3cccnc3)C2c2ccco2)c1 (stereo not drawn) [(4Z)-5-(2-furanyl)-4-[hydroxy-(3-methoxyphenyl)methylidene]-1-(3-pyridinylmethyl)pyrrolidine-2,3-dione] |
| < 4.36 | C=C(c1ccc(Br)cc1)c1sc(N2CCCC2)nc1O [(5Z)-5-[1-(4-bromophenyl)ethylidene]-2-(1-pyrrolidinyl)-4-thiazolone] |
| 5.12 | O=c1c(C23CC4CC(CC(C4)C2)C3)c(O)n(-c2ccccc2)n1-c1ccccc1 [MLS000526352] |
| < 4.36 | CCN(CC)c1ccc(C=NC(C#N)C(=N)C#N)cc1 (stereo not drawn) [SMR000023871] |
| < 4.36 | COc1cccc(OC)c1C(=O)C(C#N)c1nc2ccccc2[nH]1 (stereo not drawn) [SMR000024183] |
| 5.20 | COC(=O)c1[nH]c(C)c(C(=O)C2C(=O)C(=O)N(CCCN3CCOCC3)C2c2ccccn2)c1C (stereo not drawn) [methyl 4-{[4-hydroxy-1-[3-(4-morpholinyl)propyl]-5-oxo-2-(2-pyridinyl)-2,5-dihydro-1H-pyrrol-3-yl]carbonyl}-3,5-dimethyl-1H-pyrrole-2-carboxylate] |
